Results as given in US20180256673A1, “METHODS FOR TREATING FUNGAL INFECTIONS” (priority 2015, published 2018).
Values after ≈ are worked out from the molar mass of the structure shown. Starred links: 1 amine or outer side, 2 acyl side, 3 side chain; linkers in the order of their positions; H or OH if unused. Positions of bridges follow the written chain, without caps; N, C: chain ends. Non-standard residues stand in square brackets, D forms with d. Residues, ends and D or L forms follow the SMILES beside them. *: point of attachment. Orn(4R-OH,5R-OCH2CH2NMe3+) = C[N+](C)(C)CCO[C@@H](N[*:3])[C@H](O)C[C@H](N[*:1])C(=O)[*:2]; hTyr(3S-OH,4S-OH,3'-OSO3H) = N[C@H](C(=O)O)[C@H](O)[C@@H](O)c1ccc(O)c(OS(=O)(=O)O)c1; pTerphenylCO(4''-OnC5H11) = CCCCCOc1ccc(-c2ccc(-c3ccc(C(=O)*)cc3)cc2)cc1; Orn(4R-OH,5R-OH) = O=C([C@H](C[C@@H](O)[C@@H](O)N[*:3])N[*:1])[*:2]; hTyr(3S-OH,4S-OH) = N[C@H](C(=O)O)[C@H](O)[C@@H](O)c1ccc(O)cc1; Pro(3S-OH,4S-Me) = C[C@H]1CN[C@H](C(=O)O)[C@H]1O; X1 = CCCCCOc1ccc(-c2cc(-c3ccc(C(=O)*)cc3)no2)cc1; Gln(3R-OH) = NC(=O)C[C@@H](O)[C@H](N)C(=O)O; Hyp = O=C(O)[C@@H]1C[C@@H](O)CN1

Assays:
[1] = test system: C. parapsilosis CP02; assay: Broth microdilution MIC (CLSI), Examples 3 and 4; details: Lodderomyces parapsilosis, CP02, 24 h, read-out: Broth MIC
Method: Antifungal susceptibility testing. Candida strains were cultured aerobically at 35° C. on SDA plates or in RPMI 1640 broth (pH 7.0). […] MIC assays were performed in triplicate.

[2] = test system: C. albicans; assay: Mutant prevention concentration (MPC) determination; format: cell-based, Candida albicans; details: wild-type isolates; 24 hr, ~1×10^7 CFU/mL
[3] = test system: C. albicans ATCC 44858; assay: MIC against C. albicans ATCC 44858 at pH 4; format: cell-based; details: Candida albicans, ATCC44858, pH 4
[4] = test system: azole-resistant C. albicans (R357); assay: Immunosuppressed rat model of vulvovaginal candidiasis, vaginal CFU; format: in vivo, Candida albicans
[5] = test system: C. krusei ATCC 6258, ATCC 14243; assay: Time-kill assay in vagina-simulative medium pH 4.0 (Table 20); format: cell-based, Candida krusei
[6] = Pharmacokinetic-pharmacodynamic analyses, PK model free-drug plasma exposures; design: species or system mouse
Method: Pharmacokinetic-Pharmacodynamic Analyses. Using the data collected from the PK study, a PK model was developed in S-ADAPT. Using the developed PK model, concentration-time profiles and AUC0-168h values were computed for each dosing regimen administered in the dose-fractionation study. […] Relationships between the change in logio CFU from start of therapy and AUC0-168h were explored.

[7] = Murine protein binding; format: in vitro ADME; details: mouse, plasma
[8] = test system: Aspergillus fumigatus (ATCC 13073); assay: Neutropenic mouse model of disseminated aspergillosis, survival; format: in vivo; details: one dose; Compound 1 2 mg/kg IV or IP, AMB 2 mg/kg IP; 10 days; P<0.05
[9] = Phase 1 dose-escalation trials, pharmacokinetics after IV infusion; format: in vivo, human
Method: PK was assessed using plasma and urine samples collected over 21 days. Safety and tolerability were assessed by adverse events (AEs), vital signs, physical exams, electrocardiograms (ECGs), and safety laboratory values up to 21 days after dosing.

[10] = Modeling of total plasma concentrations versus MPC; details: IV administration of 50 mg; calculated by modeling of pharmacokinetic data
[11] = Solubility of test articles in vehicle, visual observation (Table 22); format: physicochemical; details: visual observation
Method: Test Articles. […] Amphotericin B and fluconazole were in powder form. Amphotericin B was dissolved in 0.9% NaCl. Fluconazole was dissolved in water (WFI: water for injection).

[12] = test system: Candida albicans (Strain R303); assay: MIC of dose-fractionation strain
[13] = test system: 1,3-β-D-glucan synthase from C. glabrata; assay: Glucan synthase (GS) inhibition assay; details: for IC50: DPL50, WT; for GS activity after treatment with a high dose: F659del mutant GS, 10,000 ng/mL
[14] = test system: C. parapsilosis; assay: Antifungal susceptibility testing (CLSI M27-S4); details: WT (19 isolates); 24 hr
Method: (§1) Antifungal susceptibility testing. Antifungal susceptibility testing was performed in triplicate for a collection of 95 Candida strains (20 C. albicans, 20 C. glabrata, 2 C. dubliniensis, 15 C. krusei, 19 C. parapsilosis, and 19 C. tropicalis) that included 30 isolates showing an echinocandin resistance (ER) phenotype (caspofungin-resistant) in accordance with the guidelines described in the Clinical and Laboratory Standards Institute (CLSI) document M27-S4. […] Stock solutions of the drugs were kept at −86° C.

[15] = Pharmacokinetic study in healthy ICR mice, single IP dose; details: 1 to 16 mg/kg IP
Method: Pharmacokinetic Study. […] The following doses, at three mice per dose, were studied: 1, 4, and 16 mg/kg.

[16] = test system: Candida albicans (Strain R303); assay: Dose-fractionation study in neutropenic ICR mice, kidney fungal burden (Table 24); details: 2 mg/kg as a single dose IP; 168 hours
[17] = test system: C. albicans; assay: Antifungal susceptibility testing (CLSI M27-S4), WT and echinocandin-resistant isolates; details: for % of ER isolates with an MIC of ≤0.5 mg/L: C. albicans ER isolates; for MIC median (range): 24 hr
Method: as §1

[18] = test system: C. dubliniensis; assay: as above; details: 24 hr
Method: as §1

[19] = test system: C. krusei; assay: as above; details: 24 hr
Method: as §1

[20] = test system: C. albicans ATCC 44858, DPL001, R357; assay: Time-kill assay in vagina-simulative medium pH 4.0 (Table 16); format: cell-based, Candida albicans
[21] = test system: C. glabrata CG01, ATCC 200918, MMX 7070; assay: Time-kill assay in vagina-simulative medium pH 4.0 (Table 17); format: cell-based, Candida glabrata
[22] = test system: C. tropicalis CTO2, MMX 7255, MMX 7525; assay: Time-kill assay in vagina-simulative medium pH 4.0 (Table 18); format: cell-based, Candida tropicalis
[23] = test system: C. parapsilosis CP02, CP01, MMX 7370; assay: Time-kill assay in vagina-simulative medium pH 4.0 (Table 19); format: cell-based, Candida parapsilosis
[24] = test system: 1,3-β-D-glucan synthase from C. albicans; assay: Glucan synthase (GS) inhibition assay
[25] = IV infusion, healthy human subjects

## CCCCCOc1ccc(-c2ccc(-c3ccc(C(=O)N[C@H]4C[C@@H](O)[C@@H](O)NC(=O)[C@@H]5[C@@H](O)[C@@H](C)CN5C(=O)[C@H]([C@@H](C)O)NC(=O)[C@H]([C@H](O)[C@@H](O)c5ccc(O)cc5)NC(=O)[C@@H]5C[C@@H](O)CN5C(=O)[C@H]([C@@H](C)O)NC4=O)cc3)cc2)cc1 [ANID, anidulafungin] ({pTerphenylCO(4''-OnC5H11)}-[Orn(4R-OH,5R-OH)]T[Hyp][hTyr(3S-OH,4S-OH)]T[Pro(3S-OH,4S-Me)]; lactam 1-C)
[1]
  MIC: 4 µg/mL (≈ 3.51 µM)

## CC[C@H](C)C[C@H](C)CCCCCCCCC(=O)N[C@H]1C[C@@H](O)[C@@H](NCCN)NC(=O)[C@@H]2[C@@H](O)CCN2C(=O)[C@H]([C@H](O)CCN)NC(=O)[C@H]([C@H](O)[C@@H](O)c2ccc(O)cc2)NC(=O)[C@@H]2C[C@@H](O)CN2C(=O)[C@H]([C@@H](C)O)NC1=O [CAS, caspofungin]
[1]
  MIC: 0.5 µg/mL (≈ 0.457 µM)

## CCCCCOc1ccc(-c2ccc(-c3ccc(C(=O)N[C@H]4C[C@@H](O)[C@@H](OCC[N+](C)(C)C)NC(=O)[C@@H]5[C@@H](O)[C@@H](C)CN5C(=O)[C@H]([C@@H](C)O)NC(=O)[C@H]([C@H](O)[C@@H](O)c5ccc(O)cc5)NC(=O)[C@@H]5C[C@@H](O)CN5C(=O)[C@H]([C@@H](C)O)NC4=O)cc3)cc2)cc1 [Compound 1] ({pTerphenylCO(4''-OnC5H11)}-[Orn(4R-OH,5R-OCH2CH2NMe3+)]T[Hyp][hTyr(3S-OH,4S-OH)]T[Pro(3S-OH,4S-Me)]; lactam 1-C)
[2]
  MPC: 16 µg/mL
[3]
  MIC: 0.25 µg/mL
[4]; a week later, 8 days after treatment end (day 12), once daily for 3 days, intravaginal 0.1 mL/rat (Compound 1 as 3% gel)
  reduction in vaginal CFU compared with no treatment control: > 3 log-fold
[4]; one day after treatment end (day 5), once daily for 3 days, intravaginal 0.1 mL/rat (Compound 1 as 3% gel)
  reduction in vaginal CFU compared with no treatment control: 3.8 log-fold
[5]; two C. krusei strains, all concentrations (2-128 μg/mL)
  time at which cidality (≥3-log reduction in CFU) was achieved: < 24 h
[6]; 2 mg/kg as a single dose
  Free-drug plasma AUC0-24: 65.4 ng·h/mL
[6]; 2 mg/kg total dose
  time free-drug plasma concentrations of single dose remain above those of the daily regimen: 48 h
  time free-drug plasma concentrations of single dose remain above those of the twice weekly regimen: 84 h
[6]; 2 mg/kg total, daily regimen
  Free-drug plasma AUC0-24: 9.48 ng·h/mL
[6]; 2 mg/kg total, twice weekly regimen
  Free-drug plasma AUC0-24: 30.3 ng·h/mL
[7]
  fraction unbound: 0.009
[8]
  survival versus vehicle: significantly longer survival than vehicle
[9]; 50-400 mg IV
  plasma exposures versus dose: dose-proportional plasma exposures
[9]; [25]
  apparent clearance: < 0.3 L/h
  urinary excretion: < 1%
[9]; plasma, IV infusion, healthy human subjects, read-out: half-life (t1/2)
  half-life: > 80 h
[10]
  total plasma concentration generated: > 16 µg/mL
[11]; vehicle 10% DMSO/1% Tween 20 in 0.9% NaCl, formulation 0.3, 1 and 3 mg/mL
  Solubility: S
[12]
  MIC: 0.125 µg/mL
[13]
  IC50: 0.00257 µg/mL
  GS activity after treatment with a high dose: did not exhibit significant reductions in activity
[14]
  MIC median (range): 2 (2-4) mg/L
[15]
  PK linearity over the dose range: linear PK
[16]
  log10 CFU reduction from baseline: greater than 2 log10 CFU
[17]
  % of ER isolates with an MIC of ≤0.5 mg/L: 60%
[17]; ER (10 isolates)
  MIC median (range): 0.50 (0.06-2) mg/L
[17]; WT (10 isolates)
  MIC median (range): <0.03 (<0.03)^ mg/L
[18]; ER (1 isolate)
  MIC median (range): 0.03 µg/mL
[18]; WT (1 isolate)
  MIC median (range): 0.03 µg/mL
[19]; ER (4 isolates)
  MIC median (range): 0.50 (<0.03-4) mg/L
[19]; WT (11 isolates)
  MIC median (range): 0.03 (<0.03-0.06) mg/L

## OC(Cn1cncn1)(Cn1cncn1)c1ccc(F)cc1F [FLU, fluconazole]
[4]; oral 20 mg/kg once daily for three days, days 5 and 12
  reduction in vaginal CFU compared with no treatment control: < 1 log-fold
[20]; C. albicans ATCC 44858
  Susceptibility to FLU (S/R): S
[20]; C. albicans DPL001
  Susceptibility to FLU (S/R): R
[20]; C. albicans R357
  Susceptibility to FLU (S/R): R
[21]; C. glabrata ATCC 200918
  Susceptibility to FLU (S/R): R
[21]; C. glabrata CG01
  Susceptibility to FLU (S/R): S
[21]; C. glabrata MMX 7070
  Susceptibility to FLU (S/R): R
[22]; C. tropicalis CT02
  Susceptibility to FLU (S/R): S
[22]; C. tropicalis MMX 7255
  Susceptibility to FLU (S/R): R
[22]; C. tropicalis MMX 7525
  Susceptibility to FLU (S/R): R
[23]; C. parapsilosis CP01
  Susceptibility to FLU (S/R): R
[23]; C. parapsilosis CP02
  Susceptibility to FLU (S/R): S
[23]; C. parapsilosis MMX 7370
  Susceptibility to FLU (S/R): R
[5]; C. krusei ATCC 6258
  Susceptibility to FLU (S/R): R
[5]; C. krusei ATCC 14243
  Susceptibility to FLU (S/R): R
[11]; vehicle WFI, formulation 2 mg/mL
  Solubility: S

## CCCCCOc1ccc(-c2cc(-c3ccc(C(=O)N[C@H]4C[C@@H](O)[C@@H](O)NC(=O)[C@@H]5[C@@H](O)[C@@H](C)CN5C(=O)[C@H]([C@H](O)CC(N)=O)NC(=O)[C@H]([C@H](O)[C@@H](O)c5ccc(O)c(OS(=O)(=O)O)c5)NC(=O)[C@@H]5C[C@@H](O)CN5C(=O)[C@H]([C@@H](C)O)NC4=O)cc3)no2)cc1 [MCF, micafungin] (X1-[Orn(4R-OH,5R-OH)]T[Hyp][hTyr(3S-OH,4S-OH,3'-OSO3H)][Gln(3R-OH)][Pro(3S-OH,4S-Me)]; lactam 1-C)
[2]
  MPC: 16 µg/mL
[24]; F641S mutant
  fold increase in IC50 compared to the WT: 100 fold
[24]; S645P mutant
  fold increase in IC50 compared to the WT: 144 fold
[13]
  IC50: 0.000447 µg/mL (≈ 0.000352 µM)
  GS activity after treatment with a high dose: did not exhibit significant reductions in activity
[14]
  MIC median (range): 4 (1-4) mg/L
[17]
  % of ER isolates with an MIC of ≤0.5 mg/L: 40%
[17]; ER (10 isolates)
  MIC median (range): 0.50 (0.03-4) mg/L
[17]; WT (10 isolates)
  MIC median (range): <0.03 (<0.03)^ mg/L
[18]; ER (1 isolate)
  MIC median (range): 0.03 µg/mL (≈ 0.0236 µM)
[18]; WT (1 isolate)
  MIC median (range): 0.03 µg/mL (≈ 0.0236 µM)
[19]; ER (4 isolates)
  MIC median (range): 1.00 (0.03-8) mg/L
[19]; WT (11 isolates)
  MIC median (range): 0.12 (0.03-0.25) mg/L
